Data published in patent publication US20050085447A1, “Pyrido[3,4-d]pyrimidine derivatives as matrix metalloproteinase-13 inhibitors” (Warner-Lambert Company LLC, priority 2003, published 2005).
Read-outs that look alike come from different tables or passages of the source.

Legend:
Type in all cases: biochemical
MMP-3 catalytic domain = molecular target: T1, MMP-3 catalytic domain (Homo sapiens, UniProt P08254); assay: Thiopeptolide substrate hydrolysis inhibition assay, MMP-3 catalytic domain; details: MES buffer pH 6.0, read-out: MMP-3CD IC50
T1 construct: MMP-1 full-length, MMP-3 catalytic domain, MMP-7 full-length
From the text: (§1) The assay methods of Biological Examples 1-4 measure the amount by which a test compound reduces the hydrolysis of a thiopeptolide substrate catalyzed by a matrix metalloproteinase enzyme or catalytic domain thereof. It has been shown previously by Ye Qi-Zhuang, Hupe D., and Johnson L. (Current Medicinal Chemistry, 1996;3:407-418) that inhibitor activity against a catalytic domain of an MMP is predictive of the inhibitor activity against the respective full-length MMP enzyme. The methods described below for the inhibition of MMP-13 may also be adapted and used to determine the ability of the compounds of Formula I to inhibit other matrix metalloproteases such as MMP-1, MMP-2, MMP-3, MMP-7, MMP-8, MMP-9, MMP-12, MMP-14, MMP-17, and the like.
(§2) Thiopeptolide substrates show virtually no decomposition or hydrolysis at or below neutral pH in the absence of a matrix metalloproteinase enzyme. A typical thiopeptolide substrate commonly utilized for assays is Ac-Pro-Leu-Gly-thioester-Leu-Leu-Gly-OEt. A 100 μL assay mixture will contain 50 mM of N-2-hydroxyethylpiperazine-N′-2-ethanesulfonic acid buffer (“HEPES,” pH 7.0), 10 mM CaCl2, 100 μM thiopeptolide substrate, and 1 mM 5,5′-dithio-bis-(2-nitro-benzoic acid) (DTNB). […] The change in absorbance at 405 nm is monitored on a Thermo Max microplate reader (molecular Devices, Menlo Park, Calif.) at room temperature (22° C.). The calculation of the amount of hydrolysis of the thiopeptolide substrate is based on E412=13600 M^−1 cm^−1 for the DTNB-derived product 3-carboxy-4-nitrothiophenoxide. Assays are carried out with and without matrix metalloproteinase inhibitor compounds, and the amount of hydrolysis is compared for a determination of inhibitory activity of the test compounds.
(§3) Test compounds were evaluated at various concentrations in order to determine their respective IC50 values, the micromolar concentration of compound required to cause a 50% inhibition of catalytic activity of the respective enzyme.
It should be appreciated that the assay buffer used with MMP-3CD was 50 mM N-morpholinoethane sulfonate (“MES”) at pH 6.0 rather than the HEPES buffer at pH 7.0 described above.
(§4) Some representative compounds of Formula I have been evaluated for their ability to inhibit MMP-13, MMP-1FL, MMP-3CD, MMP-7FL, MMP-8FL, MMP-9FL, MMP-12CD, MMP-14CD, and/or MMP-17CD, wherein FL means full-length enzyme and CD means a catalytic domain of the full-length enzyme. Test compounds can be evaluated at various concentrations in order to determine their respective IC50 values, the micromolar concentration of compound required to cause a 50% inhibition of the hydrolytic activity of the respective enzyme.
(§5) Certain compounds of Formula I have also been assayed with MMP-1 full-length, MMP-3 catalytic domain, MMP-7 full-length, MMP-8 full-length, MMP-9 full-length, MMP-12 catalytic domain, MMP-14 catalytic domain, and MMP-17 catalytic domain. […] In Biological Table 2, the compound example numbers for the Compound Examples are indicated in the column labelled “Ex. No.”

MMP-17 catalytic domain = molecular target: T2, MMP-17 catalytic domain (Homo sapiens, UniProt Q9ULZ9); assay: Thiopeptolide substrate hydrolysis inhibition assay, MMP-17 catalytic domain; details: read-out: MMP-17 CD IC50
T2 construct: MMP-14 catalytic domain, and MMP-17 catalytic domain
T2 sequence (Q9ULZ9 126-295 limits assumed): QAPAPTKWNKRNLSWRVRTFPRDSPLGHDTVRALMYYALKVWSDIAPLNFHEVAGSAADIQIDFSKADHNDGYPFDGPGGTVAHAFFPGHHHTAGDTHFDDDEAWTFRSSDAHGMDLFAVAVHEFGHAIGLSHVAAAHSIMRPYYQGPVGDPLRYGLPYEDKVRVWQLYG
From the text: as §1, §2, §3, §4, §5

MMP-7 full-length = molecular target: T3, MMP-7 full-length (Homo sapiens, UniProt P09237); assay: Thiopeptolide substrate hydrolysis inhibition assay, MMP-7 full-length; details: full-length enzyme; read-out: MMP-7FL IC50
T3 construct: MMP-3 catalytic domain, MMP-7 full-length, MMP-8 full-length
T3 sequence (P09237 95-267): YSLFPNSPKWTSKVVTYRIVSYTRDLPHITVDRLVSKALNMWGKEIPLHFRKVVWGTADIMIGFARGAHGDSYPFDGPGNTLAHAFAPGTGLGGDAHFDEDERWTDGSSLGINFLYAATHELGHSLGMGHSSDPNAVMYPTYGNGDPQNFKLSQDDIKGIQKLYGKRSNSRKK
From the text: as §1, §2, §3, §4, §5

MMP-8 full-length = molecular target: T4, MMP-8 full-length (Homo sapiens, UniProt P22894); assay: Thiopeptolide substrate hydrolysis inhibition assay, MMP-8 full-length; details: full-length enzyme; read-out: MMP-8FL IC50
T4 construct: MMP-7 full-length, MMP-8 full-length, MMP-9 full-length
From the text: as §1, §2, §3, §4, §5

MMP-13 catalytic domain = MMP-13 catalytic domain (Homo sapiens, UniProt P45452); assay: Thiopeptolide substrate hydrolysis inhibition assay, MMP-13 catalytic domain
From the text: The methods described below for the inhibition of MMP-13 may also be adapted and used to determine the ability of the compounds of Formula I to inhibit other matrix metalloproteases such as MMP-1, MMP-2, MMP-3, MMP-7, MMP-8, MMP-9, MMP-12, MMP-14, MMP-17, and the like.
Thiopeptolide substrates show virtually no decomposition or hydrolysis at or below neutral pH in the absence of a matrix metalloproteinase enzyme. A typical thiopeptolide substrate commonly utilized for assays is Ac-Pro-Leu-Gly-thioester-Leu-Leu-Gly-OEt. A 100 μL assay mixture will contain 50 mM of N-2-hydroxyethylpiperazine-N′-2-ethanesulfonic acid buffer (“HEPES,” pH 7.0), 10 mM CaCl2, 100 μM thiopeptolide substrate, and 1 mM 5,5′-dithio-bis-(2-nitro-benzoic acid) (DTNB). […] Assays are carried out with and without matrix metalloproteinase inhibitor compounds, and the amount of hydrolysis is compared for a determination of inhibitory activity of the test compounds.

MMP-14 catalytic domain = molecular target: T5, MMP-14 catalytic domain (Homo sapiens, UniProt P50281); assay: Thiopeptolide substrate hydrolysis inhibition assay, MMP-14 catalytic domain; details: read-out: MMP-14CD IC50
T5 construct: MMP-14 catalytic domain, and MMP-17 catalytic domain
From the text: as §1, §2, §3, §4, §5

MMP-9 full-length = molecular target: T6, MMP-9 full-length (Homo sapiens, UniProt P14780); assay: Thiopeptolide substrate hydrolysis inhibition assay, MMP-9 full-length; details: full-length enzyme; read-out: MMP-9FL IC50
T6 construct: MMP-8 full-length, MMP-9 full-length, MMP-12 catalytic domain
From the text: as §1, §2, §3, §4, §5

MMP-1 full-length = molecular target: T7, MMP-1 full-length (Homo sapiens, UniProt P03956); assay: Thiopeptolide substrate hydrolysis inhibition assay, MMP-1 full-length; details: full-length enzyme; read-out: MMP-1FL IC50
T7 construct: have also been assayed with MMP-1 full-length
T7 sequence (P03956 100-469): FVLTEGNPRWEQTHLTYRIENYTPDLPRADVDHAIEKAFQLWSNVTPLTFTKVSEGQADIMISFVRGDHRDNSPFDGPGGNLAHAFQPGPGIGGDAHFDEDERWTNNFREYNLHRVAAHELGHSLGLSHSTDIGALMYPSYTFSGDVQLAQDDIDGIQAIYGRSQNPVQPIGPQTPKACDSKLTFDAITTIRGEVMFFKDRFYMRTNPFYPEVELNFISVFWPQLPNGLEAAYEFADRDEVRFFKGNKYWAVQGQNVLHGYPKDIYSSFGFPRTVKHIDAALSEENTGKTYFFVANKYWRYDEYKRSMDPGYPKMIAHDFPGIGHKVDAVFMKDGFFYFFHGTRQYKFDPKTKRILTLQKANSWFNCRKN
From the text: as §1, §2, §3, §4, §5

MMP-12 catalytic domain = molecular target: T8, MMP-12 catalytic domain (Homo sapiens, UniProt P39900); assay: Thiopeptolide substrate hydrolysis inhibition assay, MMP-12 catalytic domain; details: read-out: MMP-12CD IC50
T8 construct: MMP-9 full-length, MMP-12 catalytic domain, MMP-14 catalytic domain
From the text: as §1, §2, §3, §4, §5

[1] = MMP-13 catalytic domain, read-out: MMP-13CD IC50

T4 sequence (P22894 101-467): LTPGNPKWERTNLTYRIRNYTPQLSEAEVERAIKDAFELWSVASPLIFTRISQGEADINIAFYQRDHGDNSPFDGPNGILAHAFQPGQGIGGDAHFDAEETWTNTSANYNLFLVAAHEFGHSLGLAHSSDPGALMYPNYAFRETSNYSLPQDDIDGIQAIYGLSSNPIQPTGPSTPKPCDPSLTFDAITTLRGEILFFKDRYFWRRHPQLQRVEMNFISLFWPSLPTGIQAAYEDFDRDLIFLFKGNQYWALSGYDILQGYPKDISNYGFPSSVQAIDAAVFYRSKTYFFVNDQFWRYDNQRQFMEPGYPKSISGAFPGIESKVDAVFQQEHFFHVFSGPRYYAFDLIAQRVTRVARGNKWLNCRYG
T6 sequence (P14780 94-707): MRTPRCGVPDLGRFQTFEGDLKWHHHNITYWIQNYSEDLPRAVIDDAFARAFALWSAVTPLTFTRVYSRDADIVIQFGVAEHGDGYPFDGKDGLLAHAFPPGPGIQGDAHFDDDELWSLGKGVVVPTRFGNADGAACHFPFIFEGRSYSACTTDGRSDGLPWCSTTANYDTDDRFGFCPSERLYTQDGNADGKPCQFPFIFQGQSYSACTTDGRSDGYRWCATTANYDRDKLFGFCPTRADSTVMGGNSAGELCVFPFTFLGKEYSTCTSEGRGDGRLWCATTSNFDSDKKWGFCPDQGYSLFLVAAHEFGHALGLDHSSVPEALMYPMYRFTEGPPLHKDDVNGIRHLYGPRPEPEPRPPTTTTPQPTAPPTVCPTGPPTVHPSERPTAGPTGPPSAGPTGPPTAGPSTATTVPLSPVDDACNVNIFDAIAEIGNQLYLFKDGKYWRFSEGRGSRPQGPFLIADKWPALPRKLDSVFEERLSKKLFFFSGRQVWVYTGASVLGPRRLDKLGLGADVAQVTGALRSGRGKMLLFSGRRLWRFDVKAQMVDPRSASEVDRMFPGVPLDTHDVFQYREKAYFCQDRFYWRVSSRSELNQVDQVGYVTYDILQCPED
T1 sequence (P08254 100-272 limits assumed): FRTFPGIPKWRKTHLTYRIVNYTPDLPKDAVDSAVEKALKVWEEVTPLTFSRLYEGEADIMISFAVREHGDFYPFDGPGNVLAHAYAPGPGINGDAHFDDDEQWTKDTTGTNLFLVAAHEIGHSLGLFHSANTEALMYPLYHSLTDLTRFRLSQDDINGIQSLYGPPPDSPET
T8 sequence (P39900 106-263 limits assumed): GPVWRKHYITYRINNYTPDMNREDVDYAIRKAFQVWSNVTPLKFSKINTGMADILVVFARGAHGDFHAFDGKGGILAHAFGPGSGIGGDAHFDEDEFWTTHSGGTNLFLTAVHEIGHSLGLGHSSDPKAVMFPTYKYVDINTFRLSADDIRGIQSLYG

| SMILES | IC50 (MMP-3 catalytic domain) [µM] | IC50 (MMP-17 catalytic domain) [µM] | IC50 (MMP-7 full-length) [µM] | IC50 (MMP-8 full-length) [µM] | IC50 (MMP-13 catalytic domain; [1]) [µM] | IC50 (MMP-14 catalytic domain) [µM] | IC50 (MMP-9 full-length) [µM] | IC50 (MMP-1 full-length) [µM] | IC50 (MMP-13 catalytic domain) [µM] | IC50 (MMP-12 catalytic domain) [µM] |
| --- | --- | --- | --- | --- | --- | --- | --- | --- | --- | --- |
| COc1cccc(CNC(=O)c2cc3c(=O)n(Cc4ccc(C(=O)O)cc4)cnc3cn2)c1 [Compound Example 2, 4-[6-(3-methoxy-benzylcarbamoyl)-4-oxo-4H-pyrido[3,4-d]pyrimidin-3-ylmethyl]-benzoic acid] | 14 | > 100 | > 100 | > 100 | 0.0013 | > 100 | > 100 | > 100 | – | – |
| O=C(O)c1ccc(Cn2cnc3cnc(C(=O)NCc4cccnc4)cc3c2=O)cc1 [Compound Example 3, 4-{4-oxo-6-[(pyridin-3-ylmethyl)-carbamoyl]-4H-pyrido[3,4-d]pyrimidin-3-ylmethyl}-benzoic acid] | > 100 | > 100 | > 100 | > 100 | 0.032 | > 100 | > 100 | > 100 | – | – |
| O=C(O)c1ccc(Cn2cnc3cnc(C(=O)NCc4ccc(Cl)cc4)cc3c2=O)cc1 [Compound Example 4, 4-[6-(4-chloro-benzylcarbamoyl)-4-oxo-4H-pyrido [3,4-d]pyrimidin-3-ylmethyl]-benzoic acid] | > 100 | > 100 | > 100 | – | – | > 100 | > 100 | > 100 | 0.01 | – |
| O=C(O)c1ccc(Cn2cnc3cnc(C(=O)NCc4ccncc4)cc3c2=O)cc1 [Compound Example 5, 4-{4-oxo-6-[(pyridin-4-ylmethyl)-carbamoyl]-4H-pyrido[3,4-d]pyrimidin-3-ylmethyl}-benzoic acid] | 81 | > 100 | – | – | 0.005 | > 100 | – | – | – | > 100 |
| COc1cc(CNC(=O)c2cc3c(=O)n(Cc4ccc(C(=O)O)cc4)cnc3cn2)ccn1 [Compound Example 6, 4-{6-[(2-methoxy-pyridin-4-ylmethyl)-carbamoyl]-4-oxo-4H-pyrido [3,4-d]pyrimidin-3-ylmethyl}-benzoic acid] | 17 | > 100 | – | – | – | > 100 | – | – | – | > 100 |
| O=C(O)c1ccc(Cn2cnc3cnc(C(=O)NCc4cccc(Cl)c4)cc3c2=O)cc1 [Compound Example 10, 4-[6-(3-chloro-benzylcarbamoyl)-4-oxo-4H-pyrido[3,4-d]pyrimidin-3-ylmethyl]-benzoic acid] | 41 | > 100 | > 100 | > 100 | – | > 100 | > 100 | > 100 | – | – |
| O=C(O)c1ccc(Cn2cnc3cnc(C(=O)NCc4cccc(F)c4)cc3c2=O)cc1 [Compound Example 11, 4-[6-(3-fluoro-benzylcarbamoyl)-4-oxo-4H-pyrido[3,4-d]pyrimidin-3-ylmethyl]-benzoic acid] | > 100 | > 100 | > 100 | > 100 | – | > 100 | > 100 | > 100 | 0.017 | – |
| O=C(O)c1ccc(Cn2cnc3cnc(C(=O)NCc4ccc(C(F)(F)F)cc4)cc3c2=O)cc1 [Compound Example 12, 4-[4-oxo-6-(4-trifluoromethyl-benzylcarbamoyl)-4H-pyrido[3,4-d]pyrimidin-3-ylmethyl]-benzoic acid] | > 100 | > 100 | > 100 | > 100 | – | > 100 | > 100 | > 100 | 0.097 | – |
| O=C(O)c1ccc(Cn2cnc3cnc(C(=O)NCc4cccc(C(F)(F)F)c4)cc3c2=O)cc1 [Compound Example 13, 4-[4-oxo-6-(3-trifluoromethyl-benzylcarbamoyl)-4H-pyrido[3,4-d]pyrimidin-3-ylmethyl]-benzoic acid] | 48 | > 100 | > 100 | – | – | > 100 | > 100 | > 100 | 0.0026 | – |
| O=C(O)c1ccc(Cn2cnc3cnc(C(=O)NCc4ccc(F)c(F)c4)cc3c2=O)cc1 [Compound Example 14, 4-[6-(3,4-difluoro-benzylcarbamoyl)-4-oxo-4H-pyrido[3,4-d]pyrimidin-3-ylmethyl]-benzoic acid] | 42 | > 100 | > 100 | > 100 | 0.0053 | > 100 | > 100 | > 100 | – | – |
| COc1cc(CNC(=O)c2cc3c(=O)n(Cc4ccc(C(=O)O)cc4)cnc3cn2)ccc1O [Compound Example 15, 4-[6-(4-hydroxy-3-methoxy-benzylcarbamoyl)-4-oxo-4H-pyrido[3,4-d]pyrimidin-3-ylmethyl]-benzoic acid] | > 100 | > 100 | > 30 | > 100 | 0.02 | > 30 | > 100 | > 100 | – | – |
